Source: US8586552B2, “4,6-substituted 2,5-dideoxystreptamine aminoglycoside antibiotics” (SelectX Pharmaceuticals, Inc., priority 2012, dated 2013)
Converted amounts (≈) assume the structure as drawn.

Legend:
Type in all cases: cell-based
[1] = system: Pseudomonas aeruginosa PR1 (clinical isolate with intermediate aminoglycoside resistance); assay: MIC against Pseudomonas aeruginosa clinical isolate PR1; details: Pseudomonas aeruginosa resistant strain PR1
From the text: (§1) Pseudomonas aeruginosa is a prominent nosocomial pathogen. In addition to intrinsic antibiotic resistance to several antibiotics, Pseudomonas has acquired multiple additional mechanisms of resistance. As a result, therapeutic options for the treatment of infections caused by Pseudomonas aeruginosa are limited. We acquired clinical isolates of Pseudomonas aeruginosa (Micromyx LLC, Kalamazoo, Mich.), and used this panel to test compounds for Pseudomonicidal activity. […] For each strain and antibiotic, the mechanism(s) of resistance was inferred from the resistance profile. The presence of specific AGMEs was confirmed by colony PCR.

[2] = system: Pseudomonas aeruginosa PR2 (clinical isolate with intermediate aminoglycoside resistance); assay: MIC against Pseudomonas aeruginosa clinical isolate PR2; details: Pseudomonas aeruginosa resistant strain PR2
From the text: as §1

[3] = system: Klebsiella pneumoniae (Kpn, KPWT, ATCC #700603); assay: MIC against Klebsiella pneumoniae reference strain KPWT; details: Klebsiella pneumonia KPWT, Table 5 (unit not given); in µg/mL
From the text: For evaluation of efficacy, we assembled panels of representative gram-negative pathogens, including Pseudomonas aeruginosa (Pae, PAWT, ATCC #27853), Klebsiella pneumoniae (Kpn, KPWT, ATCC #700603), Acinetobacter baumannii (Aba, ABWT, ATCC #BAA-747) and Escherichia coli (Eco, ECWT, ATCC #25922). […] Two strains (PAWT and ECWT) are reference strains cited within the Clinical and Laboratory Standards Institute (CLSI) Standards for susceptibility testing by Minimum Inhibitory Concentration (MIC) (SXPS2) and are well suited for quality control. ABWT and ECWT are widely susceptible to aminoglycoside antibiotics, whereas PAWT and KPWT harbor a single aminoglycoside-modifying enzyme (AGME) that targets 4,6-substituted-2-deoxystreptamine AGs. […]

[4] = system: Klebsiella pneumoniae KR1 (clinical isolate with intermediate aminoglycoside resistance); assay: MIC against Klebsiella pneumoniae clinical isolate KR1; details: Klebsiella pneumonia KR1; in µg/mL
From the text: (§2) Klebsiella pneumoniae (Kpn) and Escherichia coli (Eco) are gram-negative (like Pae), enteric pathogens with increasing clinical relevance. Many clinical isolates of Kpn and Eco harbor extended-spectrum beta-lactamases and are no longer sensitive to most beta-lactam antibiotics. We acquired clinical isolates of Klebsiella pneumoniae and Escherichia coli (Micromyx LLC, Kalamazoo, Mich.) and used this panel to test compounds for anti-enteric activity.

[5] = system: Pseudomonas aeruginosa PR3 (high-level, efflux-mediated, pan-aminoglycoside resistance); assay: MIC against Pseudomonas aeruginosa clinical isolate PR3; details: Pseudomonas aeruginosa resistant strain PR3
From the text: as §1

[6] = system: Klebsiella pneumoniae KR2 (clinical isolate with intermediate aminoglycoside resistance); assay: MIC against Klebsiella pneumoniae clinical isolate KR2; details: Klebsiella pneumonia KR2
From the text: as §2

[7] = system: Klebsiella pneumoniae KR3 (clinical isolate possessing high-level aminoglycoside resistance); assay: MIC against Klebsiella pneumoniae clinical isolate KR3; details: Klebsiella pneumonia KR3; in µg/mL
From the text: as §2

[8] = system: Pseudomonas aeruginosa (Pae, PAWT, ATCC #27853); assay: MIC against Pseudomonas aeruginosa reference strain PAWT; details: Pseudomonas aeruginosa wild type PAWT
From the text: (§3) For evaluation of efficacy, we assembled panels of representative gram-negative pathogens, including Pseudomonas aeruginosa (Pae, PAWT, ATCC #27853), Klebsiella pneumoniae (Kpn, KPWT, ATCC #700603), Acinetobacter baumannii (Aba, ABWT, ATCC #BAA-747) and Escherichia coli (Eco, ECWT, ATCC #25922). These reference strains are useful indicator organisms to characterize compound activity against bacteria from a pathogenic genus in the absence of multiple resistance mechanisms. Two strains (PAWT and ECWT) are reference strains cited within the Clinical and Laboratory Standards Institute (CLSI) Standards for susceptibility testing by Minimum Inhibitory Concentration (MIC) (SXPS2) and are well suited for quality control. ABWT and ECWT are widely susceptible to aminoglycoside antibiotics, whereas PAWT and KPWT harbor a single aminoglycoside-modifying enzyme (AGME) that targets 4,6-substituted-2-deoxystreptamine AGs. […]

[9] = system: more than fifty resistant contemporary clinical isolates of Pseudomonas aeruginosa; assay: MIC90 against panel of resistant clinical isolates of Pseudomonas aeruginosa
From the text: To assess this, a panel of more than fifty resistant contemporary clinical isolates of Pseudomonas aeruginosa were obtained from multiple sources including JMI Laboratories (North Liberty, Iowa), Pfizer (Groton, Conn.), Micromyx (Kalamazoo, Mich.), Dr. J. Chow (Wayne State University). Strains were characterized for resistance to a wide variety of classes of antibiotics including aminoglycosides, β-lactams and fluoroquinolones. […] This reflects the difficulty in treating clinical Pseudomonas aeruginosa infections. […] Using this stringent panel, we tested a subset of compounds of the invention (Table 4).

[10] = system: Acinetobacter baumannii (Aba, ABWT, ATCC #BAA-747); assay: MIC against Acinetobacter baumannii reference strain ABWT
From the text: as §3

[11] = system: fifty resistant contemporary clinical isolates of Acinetobacter baumannii; assay: MIC90 against panel of resistant clinical isolates of Acinetobacter baumannii
From the text: As in the case of Pseudomonas aeruginosa and Klebsiella pneumoniae, we considered whether the SAR observed against select Acinetobacter baumannii strains 1, 2 or 3 was indicative of general potency. […] Using this stringent Acinetobacter baumannii panel, we tested a subset of compounds of the invention.

panel of E. coli strains = assay: MIC90 against a panel of E. coli strains; details: in µg/mL
[12] = system: Acinetobacter baumannii AB1; assay: MIC against Acinetobacter baumannii clinical isolate AB1
From the text: (§4) Acinetobacter baumannii is another clinically important and very challenging gram negative pathogen. Members of the Acinetobacter genus, including baumannii, have a remarkable ability to upregulate and acquire resistance determinants. Coupled with its ability to survive for prolonged periods in a hospital environment, A. baumannii is an emerging threat for healthcare institutions globally. We acquired clinical isolates of Acinetobacter baumannii and used this panel to test compounds for anti-Acinetobacter activity. We first tested reference AGs against our panel of Aba strains.

[13] = system: Acinetobacter baumannii AB2; assay: MIC against Acinetobacter baumannii clinical isolate AB2
From the text: as §4

[14] = system: fifty resistant contemporary clinical isolates of Klebsiella pneumoniae; assay: MIC90 against panel of resistant clinical isolates of Klebsiella pneumoniae; details: stringent panel of resistant clinical isolates, Table 5
From the text: Using this stringent Klebsiella pneumoniae panel, we tested a subset of compounds of the invention.

[15] = system: Acinetobacter baumannii AB3; assay: MIC against Acinetobacter baumannii clinical isolate AB3
From the text: as §4

For `NCC[C@H](O)C(=O)N[C@@H]1C[C@H](N)[C@@H](O[C@H]2O[C@H](CN)[C@@H](O)[C@H](O)[C@H]2O)[C@@H](F)[C@H]1O[C@H]1O[C@H](CNC2CC2)[C@@H](O)[C@H](N)[C@H]1O` [SXP1212-56″-16], the “MIC PR1” value [1] was 2 to 8 µg/mL, the “MIC PR2” value [2] was under 0.25 to 4 µg/mL and the “MIC KPWT” value [3] was under 0.25. The “MIC KR1” value [4] was 0.5-1, the “MIC PR3” value [5] was 32 µg/mL (≈ 51.1 µM) and the “MIC KR2” value [6] was 1. For the same compound, the “MIC KR3” value [7] was 16 and the “MIC PAWT” value [8] was 1 µg/mL (≈ 1.6 µM).

With `NCCC(O)C(=O)NC1CC(N)C(OC2OC(CN)C(O)CC2N)C(F)C1OC1OC(CNCC(O)CN)C(O)C(N)C1O` (stereo not drawn) [SXP 2524] the “MIC PR1” value [1] was 4 µg/mL (≈ 6.22 µM), the “MIC90 Pseudomonas aeruginosa” value [9] was 4 µg/mL (≈ 6.22 µM) and the “MIC PR2” value [2] was 0.5 µg/mL (≈ 0.778 µM). For the same compound, the “MIC ABWT” value [10] was 0.5 µg/mL (≈ 0.778 µM), the “MIC KPWT” value [3] was 0.5 and the “MIC90 Acinetobacter baumannii” value [11] was 2 µg/mL (≈ 3.11 µM). For the same compound, the “MIC KR1” value [4] was 0.5-1, the “MIC90 E. coli” value (panel of E. coli strains) was 2-4 and the “MIC PR3” value [5] was 8 µg/mL (≈ 12.4 µM). For the same compound, the “MIC KR2” value [6] was 0.5, the “MIC AB1” value [12] was 2 µg/mL (≈ 3.11 µM) and the “MIC KR3” value [7] was 0.5-1. The “MIC PAWT” value [8] was 0.25 µg/mL (≈ 0.389 µM), the “MIC AB2” value [13] was 1 µg/mL (≈ 1.56 µM) and the MIC90 Klebsiella pneumonia [14] was 1 µg/mL (≈ 1.56 µM). The “MIC AB3” value [15] was 8 µg/mL (≈ 12.4 µM).
